Measured values taken from patent US5061721A (G. D. Searle & Co., priority 1990, dated 1991).

Columns and labels:
[1] = system: Male Long-Evans rats; test: Passive avoidance assay; type: in vivo, rat; conditions: for Latency in Seconds in Passive Avoidance: saline 11.9; for Latency to enter box 24 hours after shock: n = 6
Description: Subjects: Male Long-Evans rats weighing about 200 g (Sasco) were used. They were housed two per cage with ad lib food and water for the duration of the experiment.
Apparatus: The apparatus consisted of a plexiglass box (32×26×20 cm) with a lid with a floor of metal rods spaced 1.8 cm apart. The box was divided into two chambers, one painted black and the other gray. Two doors (12 cm high) were cut into the front of the box allowing access into each chamber.
A Y-shaped plexiglas runway was attached to the front of the box. The stem of the Y was 16 cm long and unpainted. The arms of the Y (14 cm long each) led to the two doors and each was painted the color of the chamber to which it led. The stem of the Y extended over the edge of the table on which the apparatus was placed, so that it was approximately 75 cm above the floor. The metal floor of the box was wired to a Lafayette shock generator so that a 0.5 mAmp shock could be delivered.
Procedure: On the first rest day, each rat was placed on the runway and allowed to enter one of the chambers. The door to this chamber was then closed, and the rat was then allowed to enter the other chamber. […] Sixty minutes later, each rat was again allowed to enter one chamber, where it received a footshock for 2 seconds. […] On the third test day, the rat is again placed on the runway and allowed to enter a chamber. On days two and three, each rat's latency to enter a chamber, and which chamber it entered, are recorded.

[2] = system: Rats; test: Rewarded alternation of rats in a T-maze; type: in vivo, rat; conditions: 3 mg/kg i.p.
Description: Both groups learned the task in about 20 trials. Learning is defined as making 9 correct out of 10 consecutive choices. On the following day, the food reward was placed in the other arm of the maze (reversal).

[3] = biological target: T1, NMDA receptor-associated glycine recognition site (Glycine B receptor) (Rattus norvegicus, UniProt P35439); test: TCP modulation assay (stimulation of [3H]TCP binding); type: biochemical; conditions: in the presence of 0.6 μM glycine; basal binding 2583 ±381 DPM
T1 construct: synaptic plasma membranes (SPM) prepared from rat forebrain; tissue Sasco, St. Charles, Mo; (animals); host or cells: forebrain synaptic plasma membranes of 30-45 day old male Sprague-Dawley rats, Triton X-100 washed
Description: (§1) [^3 H]TCP binding was performed using Triton X-100 washed synaptic plasma membranes (SPM) prepared from rat forebrain (30-45 day old, male Sprague-Dawley; Sasco, St. Charles, Mo.) as described previously [J. W. Thomas, W. F. Hood, J. B. Monahan, P. C. Contreras and T. L. O'Donohue, Brain Res., 442, 396-398 (1988)]. […] The samples were then filtered though glass fiber filters (Schleicher and Schuell #32) which were pretreated with 0.05% (v/v) polyethylenimine. The filters were washed and the radioactivity quantitated by liquid scintillation spectrometry. […] The EC50 values for the stimulation of [^3 H]TCP binding were determined using a four parameter logistic regression analysis.

[4] = biological target: PCP site of the NMDA-PCP receptor complex; test: [3H]TCP binding to synaptic plasma membranes under basal conditions; design: species or system rat
Description: as §1

[5] = glycine prodrug; cited from earlier work

C[C@@H](N)C(=O)O [D-alanine]
Latency in Seconds in Passive Avoidance ([1]; 534 mg/kg I.G.): 10.9 s

N[C@@H]1CONC1=O [D-cycloserine, 4-amino-3-isoxazolidone]
% of Saline Control Latency in Passive Avoidance ([1]; 0.3 mg/kg i.p., post-shock): 160% | % of Saline Control Latency in Passive Avoidance ([1]; 0.3 mg/kg i.p., pre-retrieval): 105% | % of Saline Control Latency in Passive Avoidance ([1]; 0.3 mg/kg i.p., pre-shock): 152% | % of Saline Control Latency in Passive Avoidance ([1]; 3 mg/kg i.p., post-shock): 215% | % of Saline Control Latency in Passive Avoidance ([1]; 3 mg/kg i.p., pre-retrieval): 153% | % of Saline Control Latency in Passive Avoidance ([1]; 3 mg/kg i.p., pre-shock): 245% | Latency to enter box 24 hours after shock ([1]; 10 mg/kg i.p., drug after shock): 22.8 ± 2.4 s | Latency to enter box 24 hours after shock ([1]; 10 mg/kg i.p., drug before shock): 16.6 ± 3.0 s | % of Saline Control Latency in Passive Avoidance ([1]; 10 mg/kg i.p., post-shock): 153% | % of Saline Control Latency in Passive Avoidance ([1]; 10 mg/kg i.p., pre-retrieval): 180% | % of Saline Control Latency in Passive Avoidance ([1]; 10 mg/kg i.p., pre-shock): 138% | % of Saline Control Latency in Passive Avoidance ([1]; 20 mg/kg i.p., pre-retrieval): 100% | Latency in Seconds in Passive Avoidance ([1]; 60 mg/kg I.G.): 17.3 s | Trials to learn the reversal ([2]; following day, saline about 32 trials): about 20 trials | Trials to learn place learning task (9 correct out of 10 consecutive choices) ([2]; initial task): about 20 trials

NCC(=O)O [Glycine]
Maximum specific [3H]TCP binding [3]: 4712±779 DPM

c1csc(C2(N3CCCCC3)CCCCC2)c1 [[^3 H]TCP]
Kd [4]: 44 nM

CCCCCNCC(N)=O [milacemide]
Increase of whole brain content of glycine [5]: 30%
